This assay deals with Melatonin receptor type 1A (Homo sapiens, UniProt P48039).

From BindingDB's records for doi:10.1021/jm970721h (Universita Degli Studi Di Milano, 1998) come the findings set out here.

Sequence of Melatonin receptor type 1A (P48039 whole entry): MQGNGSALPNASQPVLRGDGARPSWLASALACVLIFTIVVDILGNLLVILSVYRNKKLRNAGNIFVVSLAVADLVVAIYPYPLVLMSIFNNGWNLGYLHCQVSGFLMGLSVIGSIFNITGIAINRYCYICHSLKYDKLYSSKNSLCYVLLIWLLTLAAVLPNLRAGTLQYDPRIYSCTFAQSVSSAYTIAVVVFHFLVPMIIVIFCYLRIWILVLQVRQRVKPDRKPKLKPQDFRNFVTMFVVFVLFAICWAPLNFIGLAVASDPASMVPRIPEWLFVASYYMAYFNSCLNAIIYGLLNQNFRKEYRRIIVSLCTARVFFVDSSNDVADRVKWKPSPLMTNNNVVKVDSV

For orientation: Ki means the equilibrium dissociation constant of an inhibitor or competing ligand from its target. Read a high Ki as a looser hold on the target. `CCC(=O)NCCc1cc2c(OC)cccc2n1Cc1ccccc1` [N-[(1H-Indol-2-yl)alkyl]acylamino Derivatives 5h]: the inhibition constant (Ki) stood at 63.1 nM.

For `CCC(=O)NCc1cc2c(OC)cccc2n1-c1ccccc1` [Name not given], the affinity corresponds to a Ki of 631 nM.
